Assay results as given in patent publication US10426850B2, “Collagen mimetic peptides for targeting collagen strands for in vitro and in vivo imaging and therapeutic use” (The Johns Hopkins University, priority 2011, dated 2019).

Columns and labels:
[1] = tested on: collagen types I, II and IV; assay: SDS-PAGE staining by heat activated fluorescent CMP, collagen types; format: binding, rat (I), bovine (II), mouse (IV); settings: 6 μM, 2 μg protein per lane
From the text: Acid soluble rat-tail type I collagen, bovine type II collagen, and mouse type IV collagen were purchased from BD Bioscience (San Jose, Calif.). Complement component C1q from human serum, fibronectin from bovine plasma, and laminin from Engelbreth-Holm-Swarm murine sarcoma basement membrane were purchased from Sigma-Aldrich. ProMMP-1, and p-aminophenylmercuric acetate were acquired from EMD millipore. Human umbilical vein endothelial cells (HUVECs) and EGM-2 cell growth media were obtained from Lonza (Walkersville, Md.). Precast NuPAGE® Novex 4-12% Bis-Tris Gel (1.0 mm, 12 well), Novex® Sharp unstained protein standard, and SDS-PAGE running buffer, sample buffer, and other SDS-PAGE reagents were purchased from Life Technologies.
SDS-PAGE staining and imaging. Proteins were resolved on NuPAGE® Novex 4-12% bis-tris gels under denaturating conditions using an XCell SureLock™ Mini-Cell electrophoresis system (Life Technologies). NuPAGE® MOPS SDS running buffer containing 50 mM MOPS, 50 mM Tris Base, 0.1% SDS, and 1 mM EDTA (pH 7.7) was used. Protein samples were heated to 85° C. in NuPAGE® LDS sample denaturing buffer for 10 min before the gel loading. Unless specified otherwise, 2 μg of protein was used for each lane. The gels were run at 200 V for 50-60 min. Reducing conditions were used only for gels carrying type IV collagen, HUVECs lysate, and C1q, for which NuPAGE® reducing agent was mixed with the protein samples, and 500 μL of NuPAGE® antioxidant was added to the cathode buffer before loading. After electrophoresis, the gels were washed by deionized water briefly three times to remove the remaining SDS. […] The fluorescence intensities of the protein bands were quantified using GE ImageQuant™ TL software. After fluorescence imaging, all gels were further stained with coomassie brilliant blue (CB) G-250 (Bio-Rad) for 2-3 hr followed by washing, and imaging under white light illumination using a Gel Doc EQ system (BioRad).

[2] = tested on: collagens in fixed tissue sections (skin, cornea, bone); assay: Immunohistochemistry of fixed tissue sections with UV-activated caged CMP; parameters: species or system mouse; settings: UV-activated on tissue
From the text: For immunohistochemical staining, anti-collagen I antibody was purchased from Abcam (ab292, Cambridge, Mass.); bovine serum albumin (BSA), goat serum, and Triton X-100 were purchased from Sigma-Aldrich; DAPI was obtained from Roche Applied Science (Indianapolis, Ind.); Alexa Fluor® 594 F(ab′)2 fragment of goat anti-rabbit IgG and Prolong® Gold antifade reagent were purchased from Life Technologies. The skin and cornea tissues were harvested from a 23 month-old wild-type C57BL/6 mouse. The tissues were fixed with 4% paraformaldehyde in PBS solution (pH 7.4) for 1 hour and cryopreserved in Tissue-Tek O.C.T. medium (Sakura Finetek, Torrance, Calif.). Cryosections of 8 μm thickness were obtained and mounted onto charged glass slides. Paraffin embedded mouse bone sections were a kind gift from Dr. Catherine Foss and Dr. Collin Torok at Johns Hopkins University School of Medicine. The leg containing the tibia bone was harvested from a 12-week-old female athymic nu/nu mouse. The muscle tissues were manually trimmed, and the bone was fixed in 10% neutral-buffered formalin at room temperature overnight. The bone was demineralized in Decal Stat solution (Decal Chemical, Suffern, N.Y.) for 3 hr at room temperature, embedded in paraffin and sectioned to 4 μm at Tissue Microarray Facility of Johns Hopkins University. The formalin-fixed normal and fibrotic rat livers were a kind gift from Jie Yan and Yuzhan Kang at National University of Singapore. The tissues were sectioned to 10 μm thickness on glass slides and stained by Masson trichrome by the Reference Histology Laboratory, Johns Hopkins Medical Institutions.
Immunohistochemistry. Frozen fixed tissue slides were allowed to equilibrate to room temperature and dried under air flow. The tissue sections were permeabilized by cold methanol at −20° C. for 10 min, and incubated in 1×PBS solution. The paraffin embedded bone sections were de-paraffinized by two cycles of 5 min xylene wash, two cycles of 5 min 100% ethanol wash, and two cycles of 5 min 95% ethanol wash followed by soaking in 1×PBS solutions. […]

CF-GGG-(GPO)9 [CF(GPO)9]
staining of collagen bands [1]: binds to collagen types I, II and IV | staining of fixed mouse skin and cornea sections [2]: effectively stained | staining of demineralized, fixed, paraffin embedded mouse tibia bone sections ([2]; data not shown): strong

CF-GGG-PGOGPGPOPOGOGOPPGOOPGGOOPPG [CF^SG9P9O9, reference compound]
staining of collagen bands [1]: virtually no binding affinity to the collagen bands | staining of collagen bands ([1]; listed as CFSG9P9O9): revealed no collagen bands | staining of fixed mouse skin and cornea sections [2]: no discernible binding
